Laboratory results reported in patent publication US20090041672A1, “Drug for Treating or Diagnosing Vascular Lesion in the Skin or the Subcutaneous Soft Tissue Caused by Light Irradiation” (priority 2005, published 2009).

How the values were obtained:
[1] = tested on: skin of the upper arm; experiment: Safety tests to human: PDT on skin of the upper arm of normal individuals; type: in vivo
Experimental: (§1) To 2 normal individuals (Subject A: normal person, Subject B: normal person), talaporfin sodium was intravenously administered at a dose of 0.2 mg/kg. After the administration, the skin of the upper arm was irradiated with a diode laser (irradiation conditions: irradiation energy of 25 J/cm^2 and 50 J/cm^2 at an […] of 127 mW/cm^2, diameter of irradiated spots: 1 cm in both spots). Subject A was followed up for 2 weeks and Subject B was followed up for 2 months.

[2] = Plasma drug level in human after PDT; type: in vivo; conditions: from actually measured plasma level of Example 2
Experimental: as §1
Further, it was confirmed from the change with time of the plasma drug level measured after the PDT that the plasma level at which the photosensitive reaction no longer occurs is attained at 24 to 48 hours from the intravenous injection. This period of time is almost coincident with the period of time deduced from the model of pharmacokinetics, so that the correctness of the above-described estimated required shading time was confirmed.

[3] = Plasma talaporfin sodium level in cocks at the end of treatment; type: in vivo; conditions: 2.5 mg/kg intravenous, at end of laser treatment
Experimental: (§2) As the model of PDT to cutaneous vascular lesion (capillary hemangioma), cock's combs were used. Cock's comb is recognized as a model of cutaneous vascular lesion (capillary hemangioma) in this field. To each cock of 22 to 24 weeks old (bodyweight: about 2.5 kg), talaporfin sodium solution (concentration: 5 mg/ml) was intravenously injected from the brachial vein in an amount of 2.5 mg/kg bodyweight of the cock, in terms of the amount of talaporfin sodium. Immediately after the intravenous injection, the cock's comb was irradiated with a diode laser (wavelength: 664.5 nm±2 nm, irradiation power density: 127 mW/cm^2, energy density: 25 J/cm^2 or 50 J/cm^2). As an experimental group, (i) PDT-performed group was made, and as control groups, (ii) a group to which only the intravenous injection of talaporfin sodium was performed, and (iii) a group to which only laser irradiation was performed, were made. The mean plasma talaporfin sodium level at the end of the treatment was also measured.

[4] = tested on: cock's combs; experiment: PDT of cock's comb, model of cutaneous vascular lesion (capillary hemangioma); type: in vivo, cocks
Text: Animals Used: cocks (bodyweight: 2.5 to 3.5 kg) of 22 to 24 weeks old
Photosensitizer: talaporfin sodium
Laser Used Panalas6405, diode laser, wavelength: 664.5 nm±2 nm, output power: 75-500 mW
as §2
Morphological changes during 7 days after the treatment were visually observed, and the cocks were subjected to autopsy 7 days after the treatment. Tissue preparations were stained by hematoxylin eosin staining by a conventional method, and as required, PTAH staining (fibrin staining) and AZAN staining (collagen fiber staining) were added.

[5] = PDT-performed group, autopsy 7 days after treatment
[6] = control group, only drug administration, no laser

## Tetrasodium salt of mono-L-aspartyl chlorin e6 [talaporfin sodium]
[1]; 0.2 mg/kg i.v. + diode laser 25 and 50 J/cm^2, from immediately after the PDT
  edema in the irradiated sites and vicinities: slight edema was observed
[1]; 0.2 mg/kg i.v. + diode laser 25 and 50 J/cm^2, up to 2 days after the treatment
  erythema in the irradiated sites: slight erythema was observed
[1]; 0.2 mg/kg i.v. + diode laser, one week after the treatment
  erythema in the irradiated sites: the erythema had been disappeared
[1]; Subject B, 0.2 mg/kg i.v. + diode laser
  side effects at two months from the treatment: no side effects were observed
[2]
  amount of talaporfin sodium needed in human for attaining the plasma level found in cocks (2.3 μg/mL): 0.2 mg/kg
[3]
  mean plasma talaporfin sodium level at the end of treatment: 2.3 µg/mL
[4]; [5]
  histological findings: blood vessels in the dermis (hematoxylin eosin): disappearance of vasodilated blood vessels in the dermis was observed
  histological findings: hyperplasia of collagen fibers in the stroma: not observed
  histological findings: stratum corneum epidermidis and stratum basale epidermidis in the irradiated site: the continuity of the stratum corneum epidermidis was maintained, and the stratum basale epidermidis was also conserved
  histological findings: vascular endothelial cells in the dermis (highly magnified image): disappearance of vascular endothelial cells was observed
[4]; PDT-performed group: 2.5 mg/kg i.v. + diode laser 664.5 nm, 127 mW/cm^2, 25 or 50 J/cm^2, observed 7 days
  visual findings: decoloration reaction: decoloration reaction was observed at the site coincident with the irradiated site
[4]; [6]
  histological findings: No changes were observed
  visual findings: decoloration reaction: Decoloration reaction was not observed
